In ChEMBL document CHEMBL1139278 (2009):
Values after ≈ are worked out from the molar mass of the structure shown.

Key:
Type in all cases: functional
Staphylococcus aureus [1] = test: Antimicrobial activity against methicillin-susceptible Staphylococcus aureus Smith by NCCLS method
Streptococcus pneumoniae [2] = test: Antimicrobial activity against penicillin-susceptible Streptococcus pneumoniae ATCC 49619 by NCCLS method
Moraxella catarrhalis = test: Antimicrobial activity against Moraxella catarrhalis K1209 by NCCLS method
Streptococcus pneumoniae [3] = test: Antimicrobial activity against penicillin-resistant Streptococcus pneumoniae KT2524 by NCCLS method
Streptococcus pyogenes = test: Antimicrobial activity against Streptococcus pyogenes ATCC 112344 by NCCLS method
Staphylococcus aureus [4] = test: Antimicrobial activity against methicillin-susceptible Staphylococcus aureus infected iv dosed mouse assessed as survival rate after 1 hr of infection
Haemophilus influenzae = test: Antimicrobial activity against Haemophilus influenzae TH13 by NCCLS method
Staphylococcus aureus [5] = test: Antimicrobial activity against methicillin-resistant Staphylococcus aureus KMP9
Enterococcus faecium = test: Antimicrobial activity against vancomycin-resistant Enterococcus faecium KU1778 by NCCLS method

Row | Structure (SMILES) | MIC (Staphylococcus aureus [1]) | MIC (Streptococcus pneumoniae [2]) | MIC (Moraxella catarrhalis) | MIC (Streptococcus pneumoniae [3]) | MIC (Streptococcus pyogenes) | ED50 (Staphylococcus aureus [4]) | MIC (Haemophilus influenzae) | MIC (Staphylococcus aureus [5]) | MIC (Enterococcus faecium)
1 | C=C[C@]1(C)C[C@@H](OC(=O)CN2CCN(C(=O)CCn3cnc4c(N5CC[C@H](N)C5)ncnc43)[C@@H](C)C2)[C@]2(C)[C@H](C)CC[C@]3(CCC(=O)[C@@H]32)[C@@H](C)[C@@H]1O.Cl.Cl | 0.25 µg/mL | 0.032 µg/mL | 0.125 µg/mL | 0.032 µg/mL | 0.016 µg/mL | 1.1 mg/kg | 4 µg/mL | 0.5 µg/mL | 0.125 µg/mL
2 | C=C[C@]1(C)C[C@@H](OC(=O)CN2CCN(C(=O)CCn3cnc4c(N5CC[C@@H](N)C5)ncnc43)[C@@H](C)C2)[C@]2(C)[C@H](C)CC[C@]3(CCC(=O)[C@@H]32)[C@@H](C)[C@@H]1O.Cl.Cl | 0.125 µg/mL | 0.032 µg/mL | 0.125 µg/mL | 0.032 µg/mL | 0.016 µg/mL | 1.56 mg/kg | 2 µg/mL | 0.25 µg/mL | 0.125 µg/mL
3 | C=C[C@]1(C)C[C@@H](OC(=O)CN2CCN(C(=O)CCn3cnc4c(N5CCC(NCC)C5)ncnc43)CC2)[C@]2(C)[C@H](C)CC[C@]3(CCC(=O)[C@@H]32)[C@@H](C)[C@@H]1O.Cl.Cl (stereo partly specified) | 0.25 µg/mL | 0.125 µg/mL | 0.125 µg/mL | 0.125 µg/mL | 0.063 µg/mL | 2.21 mg/kg | 4 µg/mL | 0.5 µg/mL | 0.25 µg/mL
4 | C=C[C@]1(C)C[C@@H](OC(=O)CN2CCN(C(=O)CCn3cnc4c(N5CCC(CN)C5)ncnc43)CC2)[C@]2(C)[C@H](C)CC[C@]3(CCC(=O)[C@@H]32)[C@@H](C)[C@@H]1O.Cl.Cl (stereo partly specified) | 0.25 µg/mL | 0.063 µg/mL | 0.5 µg/mL | 0.125 µg/mL | 0.032 µg/mL | 1.21 mg/kg | 4 µg/mL | 2 µg/mL | 1 µg/mL
5 | C=C[C@]1(C)C[C@@H](OC(=O)CN2CCCN(C(=O)CCn3cnc4c(N5CCC(N)C5)ncnc43)CC2)[C@]2(C)[C@H](C)CC[C@]3(CCC(=O)[C@@H]32)[C@@H](C)[C@@H]1O.Cl.Cl (stereo partly specified) | 0.5 µg/mL | 0.063 µg/mL | 0.25 µg/mL | 0.063 µg/mL | 0.032 µg/mL | 2.51 mg/kg | 4 µg/mL | 1 µg/mL | 0.25 µg/mL
6 | C=C[C@]1(C)C[C@@H](OC(=O)CN2CCN(C(=O)CCn3cnc4c(N5CC[C@H](CNC)C5)ncnc43)CC2)[C@]2(C)[C@H](C)CC[C@]3(CCC(=O)[C@@H]32)[C@@H](C)[C@@H]1O.Cl.Cl | 0.25 µg/mL | 0.125 µg/mL | 0.125 µg/mL | 0.063 µg/mL | 0.032 µg/mL | 0.83 mg/kg | 0.5 µg/mL | 2 µg/mL | 0.5 µg/mL
7 | C=C[C@]1(C)C[C@@H](OC(=O)CN2CCN(C(=O)CCn3cnc4c(N5CCC(CNC)C5)ncnc43)CC2)[C@]2(C)[C@H](C)CC[C@]3(CCC(=O)[C@@H]32)[C@@H](C)[C@@H]1O.Cl.Cl (stereo partly specified) | 0.25 µg/mL | 0.125 µg/mL | 0.5 µg/mL | 0.125 µg/mL | 0.032 µg/mL | 1.1 mg/kg | 4 µg/mL | 2 µg/mL | 1 µg/mL
8 | C=C[C@]1(C)C[C@@H](OC(=O)CN2CCN(C(=O)CCn3cnc4c(N5CCC(N)C5)ncnc43)C(C)C2)[C@]2(C)[C@H](C)CC[C@]3(CCC(=O)[C@@H]32)[C@@H](C)[C@@H]1O.Cl.Cl (stereo partly specified) | 0.25 µg/mL | 0.032 µg/mL | 0.125 µg/mL | 0.032 µg/mL | 0.032 µg/mL | 1.39 mg/kg | 2 µg/mL | 0.25 µg/mL | 0.125 µg/mL
9 | C=C[C@]1(C)C[C@@H](OC(=O)CN2CCN(C(=O)CCn3cnc4c(N5CCC(CNC)C5)ncnc43)[C@@H](C)C2)[C@]2(C)[C@H](C)CC[C@]3(CCC(=O)[C@@H]32)[C@@H](C)[C@@H]1O.Cl.Cl (stereo partly specified) | 0.125 µg/mL | 0.063 µg/mL | 0.125 µg/mL | 0.032 µg/mL | 0.063 µg/mL | 1.2 mg/kg | 2 µg/mL | 1 µg/mL | 0.25 µg/mL
10 | C=C[C@]1(C)C[C@@H](OC(=O)CN2CCN(C(=O)CCn3cnc4c(N5CCC(NC)C5)ncnc43)CC2)[C@]2(C)[C@H](C)CC[C@]3(CCC(=O)[C@@H]32)[C@@H](C)[C@@H]1O.Cl (stereo partly specified) | 0.25 µg/mL | 0.063 µg/mL | 0.25 µg/mL | 0.125 µg/mL | 0.032 µg/mL | 1.3 mg/kg | 4 µg/mL | 1 µg/mL | 0.25 µg/mL
11 | CN[C@H](CC(C)C)C(=O)N[C@H]1C(=O)N[C@@H](CC(N)=O)C(=O)N[C@H]2C(=O)N[C@H]3C(=O)N[C@H](C(=O)N[C@H](C(=O)O)c4cc(O)cc(O)c4-c4cc3ccc4O)[C@H](O)c3ccc(c(Cl)c3)Oc3cc2cc(c3O[C@@H]2O[C@H](CO)[C@@H](O)[C@H](O)[C@H]2O[C@H]2C[C@](C)(N)[C@H](O)[C@H](C)O2)Oc2ccc(cc2Cl)[C@H]1O [VANCOMYCIN] | – | 0.25 µg/mL (≈ 0.173 µM) | 64 µg/mL (≈ 44.2 µM) | 0.5 µg/mL (≈ 0.345 µM) | – | 0.88 mg/kg | > 128 µg/mL | – | > 128 µg/mL
